Measured values as given in US10344026B2, “Compositions and methods of targeting mutant K-ras” (NANTBIO, INC., priority 2017, dated 2019).

Legend:
Format in all cases: cell-based
wild type K-Ras = molecular target: T1, wild type K-Ras (Homo sapiens, UniProt P01116); experiment: G-LISA Ras activation, 293H cells transfected with Ras wild-type, EGF stimulated; details: compound 1 hour, then 100 ng/ml EGF 2 minutes
T1 construct: expressed in transfected cells; host or cells: 293H cells
Protocol: 293H cells were seeded in 6-wells at 0.6×10^6 cells per well and transfected next day with 5 μg of Ras wild-type, or G12C, G12D or G12V mutant DNA plasmid vector using transfection reagent Lipofectamine 3000. Next day cells were treated with 3.125-25 μM of Ras compounds for 1 hour. Wild-type transfected cells were subsequently treated with 100 ng/ml EGF for 2 minutes. Cells were washed once in ice-cold PBS, lysed in complete lysis buffer on ice, and processed by G-LISA according to Cytoskeleton protocol.

[1] = system: Ishikawa (K-Ras wild type cell line); experiment: Viability assay (CellTiterBlue, 72 hr) Ishikawa; details: Homo sapiens, GI50, CellTiterBlue, Ishikawa K-Ras wild-type
Method in brief: (§1)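 1000 cells/well, 18 hr pre-incubation at 37 °C; compound added from DMSO stock, 0.5% DMSO final; 72 hr; CellTiterBlue 3 hr, fluorescence Ex550/Em590; GI50 normalized to DMSO = 100%, 100 uM tamoxifen = 0% viability.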

HCT116-G31D = experiment: Viability assay (CellTiterBlue, 72 hr) HCT116; details: Homo sapiens, HCT-116, GI50, CellTiterBlue, HCT116 K-Ras G13D, read-out: 72 hr Cell Viability HCT116 (G13D)
Method in brief: as §1

Panc1-G12D = experiment: Viability assay (CellTiterBlue, 72 hr) Panc1; details: Homo sapiens, PANC-1, GI50, CellTiterBlue, Panc1 K-Ras G12D, read-out: 72 hr Cell Viability Panc1 (G12D)
Method in brief: as §1

Panc10.05-G12D = experiment: Viability assay (CellTiterBlue, 72 hr) Panc10.05; details: Homo sapiens, Panc1005, GI50, CellTiterBlue, Panc10.05 K-Ras G12D, read-out: 72 hr Cell Viability Panc10.05 (G12D)
Method in brief: as §1

[2] = system: phospho-Akt in Panc1 (G12D); experiment: In-Cell Western phospho-Akt, Panc1; details: Homo sapiens, PANC-1, 1 h; Panc1, one hour treatment; read-out: In-Cell Western Panc1 (G12D) Akt (P)
Protocol: (§2) In-cell phosphorylation assays for Erk and Akt were performed on several of the compounds and exemplary results are shown in Table 3 below using HCC827 and A375 cell lines for wild type K-Ras and Panc1 and Panc10.05 cell lines for G12D K-Ras mutants. Results are expressed in μM and corresponding structures are shown in FIGS. 2A-2G and Examples 1-152, above.
(§3) Cells are seeded in complete medium into black sided, clear-bottom 384-well microplates at 3000 cells/[…]/well. Plates are returned to 37° C. CO2 incubator for 18 hr. Drug is made as 200× in DMSO and diluted into medium to 10×. To each well is added 4 ul 10× test article or controls, and plates are returned to the incubator. Final assay DMSO concentration is 0.5%. After one hour, cells are fixed in formaldehyde, rinsed & permeabilized with triton X-100, and blocked with BSA/Goat serum blocking solution. Primary phospho-Akt and phospho-ERK antibodies are added and plates are incubated overnight at 4° C. Plates are rinsed with Tween-20 wash buffer and secondary antibody (Goat anti-rabbit, Thermofisher) is added. After 2 hours, plates are rinsed in Tween-20 wash buffer, and then PBS. Plates are imaged on the Celigo (Nexcelom) and cellular fluorescence is quantitated. Full inhibition of phospho-Akt is achieved with 1 uM BEZ235 (Sellekchem), while full inhibition of phospho-ERK is achieved with 1 uM MEK Inhibitor II Calbiochem). EC50 values are calculated using Graphpad Prism.

K-Ras G12D = molecular target: T2, K-Ras G12D (Homo sapiens, UniProt P01116, G12D); experiment: G-LISA Ras activation, 293H cells transfected with G12D mutant; details: compound 1 hour
T2 construct: expressed in transfected cells; host or cells: 293H cells
T2 sequence (P01116 whole entry G12D): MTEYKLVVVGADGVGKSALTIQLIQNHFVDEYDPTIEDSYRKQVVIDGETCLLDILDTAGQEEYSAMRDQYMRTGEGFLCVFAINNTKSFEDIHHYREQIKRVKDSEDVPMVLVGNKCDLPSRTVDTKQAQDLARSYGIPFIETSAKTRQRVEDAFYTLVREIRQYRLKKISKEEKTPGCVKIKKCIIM
Method in brief: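 293H cells transfected with 5 μg Ras wild-type or mutant plasmid (Lipofectamine 3000); next day treated with 3.125-25 μM compound for 1 h. Wild-type-transfected cells then stimulated with 100 ng/ml EGF for 2 min. Active Ras measured by G-LISA in ice-cold lysates.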

[3] = system: phospho-Akt in Panc10.05 (G12D); experiment: In-Cell Western phospho-Akt, Panc10.05; details: Homo sapiens, Panc1005, 1 h; Panc10.05, one hour treatment; read-out: In-Cell Western Panc10.05 (G12D) Akt (P)
Protocol: as §2, §3

[4] = system: U87-MG (K-Ras wild type cell line); experiment: Viability assay (CellTiterBlue, 72 hr) U87-MG; details: Homo sapiens, U-87 MG, GI50, CellTiterBlue, U87-MG K-Ras wild-type
Method in brief: as §1

[5] = system: phospho-ERK in Panc1 (G12D); experiment: In-Cell Western phospho-ERK, Panc1; details: Homo sapiens, PANC-1, 1 h; Panc1, one hour treatment; read-out: In-Cell Western Panc1 (G12D) Erk (P)
Protocol: as §2, §3

[6] = system: phospho-ERK in Panc10.05 (G12D); experiment: In-Cell Western phospho-ERK, Panc10.05; details: Homo sapiens, Panc1005, 1 h; Panc10.05, one hour treatment; read-out: In-Cell Western Panc10.05 (G12D) Erk (P)
Protocol: as §2, §3

[7] = system: HCC827 (K-Ras wild type cell line); experiment: Viability assay (CellTiterBlue, 72 hr) HCC827; details: Homo sapiens, GI50, CellTiterBlue, HCC827 K-Ras wild-type
Method in brief: as §1

T1 sequence (P01116 whole entry): as the sequence (P01116 whole entry G12D) above, with D12G counted along it

SMILES | IC50 (wild type K-Ras) [µM] | IC50 [1] [µM] | IC50 (HCT116-G31D) [µM] | IC50 (Panc1-G12D) [µM] | IC50 (Panc10.05-G12D) [µM] | EC50 [2] [µM] | IC50 (K-Ras G12D) [µM] | EC50 [3] [µM] | IC50 [4] [µM] | EC50 [5] [µM] | EC50 [6] [µM] | IC50 [7] [µM]
CCc1nc(C)c(C(=O)Nc2nc(-c3ccc4c(c3)CCC(=O)N4)cs2)o1 [Compound 5, 2-ethyl-4-methyl-N-(4-(2-oxo-1,2,3,4-tetrahydroquinolin-6-yl)thiazol-2-yl)oxazole-5-carboxamide] | 14.1 | > 25 | 22 | 6 | 19 | 13 | 10.2 | 8 | > 25 |  |  | 
Cc1nc(CNC(=O)OC(C)(C)C)sc1C(=O)Nc1nc(-c2ccc3c(c2)CCC(=O)N3)cs1 [Compound 143, tert-butyl ((4-methyl-5-((4-(2-oxo-1,2,3,4-tetrahydroquinolin-6-yl)thiazol-2-yl)carbamoyl)thiazol-2-yl)methyl)carbamate] | 19 | > 25 | > 25 | 7 | 4 | 14 |  | 12 | 9 | 8 | 8 | 
Cc1cc(C(=O)Nc2nc(-c3ccc4c(c3)CCC(=O)N4)cs2)n(C)n1 [Compound 22, 1,3-dimethyl-N-(4-(2-oxo-1,2,3,4-tetrahydroquinolin-6-yl)thiazol-2-yl)-1H-pyrazole-5-carboxamide] | 12.6 | 4 | > 25 | 1.3 | 0.734 | > 25 | 4.6 | 27 |  | > 25 | > 25 | 22
Cc1nc(C)c(C(=O)Nc2nc(-c3ccc4c(c3)CCC(=O)N4Cc3ccccc3)cs2)o1 [Compound 60, N-(4-(1-benzyl-2-oxo-1,2,3,4-tetrahydroquinolin-6-yl)thiazol-2-yl)-2,4-dimethyloxazole-5-carboxamide] | 8.6 | 6 | 7 | 2 | 13 | 6 | 7.4 |  | 14 | 4 | 3 | 
Cc1nc(C)c(C(=O)Nc2nc(-c3ccc4c(c3)CCC(=O)N4CC3CCCCC3)cs2)o1 [Compound 62, N-(4-(1-(cyclohexylmethyl)-2-oxo-1,2,3,4-tetrahydroquinolin-6-yl)thiazol-2-yl)-2,4-dimethyloxazole-5-carboxamide] | > 25 | 3 | 4 | 5 | 2 | 6 | 21.7 |  | 3 | 2 | 6 | 
CCc1nc(C)c(C(=O)Nc2nc(-c3ccc4c(c3)CCC(=O)N4Cc3ccccc3)cs2)o1 [Compound 59, N-(4-(1-benzyl-2-oxo-1,2,3,4-tetrahydroquinolin-6-yl)thiazol-2-yl)-2-ethyl-4-methyloxazole-5-carboxamide] | 6.5 | 4 | 6 | 2 | 11 | 6 | 5.8 |  | 10 | 3 | 3 | 
Cc1nc(C(C)C)sc1C(=O)Nc1nc(-c2ccc3c(c2)CCC(=O)N3)cs1 [Compound 3, 2-isopropyl-4-methyl-N-(4-(2-oxo-1,2,3,4-tetrahydroquinolin-6-yl)thiazol-2-yl)thiazole-5-carboxamide] | 12 | > 25 | 18 | 5.5 | 14 | 9 |  | 8 | 12 | 2 | 3 | 
Cc1nc(C2CC2)oc1C(=O)Nc1nc(-c2ccc3c(c2)CCC(=O)N3CCc2ccccc2)cs1 [Compound 61, 2-cyclopropyl-4-methyl-N-(4-(2-oxo-1-phenethyl-1,2,3,4-tetrahydroquinolin-6-yl)thiazol-2-yl)oxazole-5-carboxamide] | 8.5 | 2.1 | 3 | 1.6 | 0.87 | 2 | 5.1 |  | 1.3 | 0.528 | 2 | 
Cc1nc(C)c(C(=O)Nc2nc(-c3ccc4c(c3)CCC(=O)N4Cc3cccc4c3OCO4)cs2)o1 [Compound 73, N-(4-(1-(benzo[d][1,3]dioxol-4-ylmethyl)-2-oxo-1,2,3,4-tetrahydroquinolin-6-yl)thiazol-2-yl)-2,4-dimethyloxazole-5-carboxamide] | 18.8 | 4 | 3 | 7 | 0.733 |  | 19.2 |  | 3 |  |  | 12
Cn1nc2ccccc2c1C(=O)Nc1nc(-c2ccc3c(c2)CCC(=O)N3)cs1 [Compound 26, 2-methyl-N-(4-(2-oxo-1,2,3,4-tetrahydroquinolin-6-yl)thiazol-2-yl)-2H-indazole-3-carboxamide] | > 25 | < 0.8 | 1 | 2 | 1.1 |  | 10.6 |  | 1.4 |  |  | 6
Cc1nc(C2CCCC2)sc1C(=O)Nc1nc(-c2ccc3c(c2)CCC(=O)N3)cs1 [Compound 145, 2-cyclopentyl-4-methyl-N-(4-(2-oxo-1,2,3,4-tetrahydroquinolin-6-yl)thiazol-2-yl)thiazole-5-carboxamide] | > 25 | > 25 | > 25 | 11 | 7 | 18 | 24 | 17 | 16 | 5 | 7 | 
Cc1nn(C)cc1C(=O)Nc1nc(-c2ccc3c(c2)CCC(=O)N3)cs1 [Compound 21, 1,3-dimethyl-N-(4-(2-oxo-1,2,3,4-tetrahydroquinolin-6-yl)thiazol-2-yl)-1H-pyrazole-4-carboxamide] | 17.1 | 5 | 10 | 2 | 0.797 | 12 | 3.8 | 8 |  | > 25 | > 25 | 6
